From PubChem BioAssay AID392 (SGCOxCompounds, 2006)

Target: Peroxisomal trans-2-enoyl-CoA reductase (Homo sapiens) (UniProt Q9BY49)
Experiment: compound-induced PECR thermal stabilization – biophysical, human, DSF, SYPRO orange, NADP+ (AID 392)
Conditions: recombinant PECR, protein 2 µM, buffer 10 mM HEPES, pH 7.5, NaCl 150 mM, stronger effect = higher value

Sequence of Peroxisomal trans-2-enoyl-CoA reductase (Homo sapiens) (Q9BY49 whole entry, looked up): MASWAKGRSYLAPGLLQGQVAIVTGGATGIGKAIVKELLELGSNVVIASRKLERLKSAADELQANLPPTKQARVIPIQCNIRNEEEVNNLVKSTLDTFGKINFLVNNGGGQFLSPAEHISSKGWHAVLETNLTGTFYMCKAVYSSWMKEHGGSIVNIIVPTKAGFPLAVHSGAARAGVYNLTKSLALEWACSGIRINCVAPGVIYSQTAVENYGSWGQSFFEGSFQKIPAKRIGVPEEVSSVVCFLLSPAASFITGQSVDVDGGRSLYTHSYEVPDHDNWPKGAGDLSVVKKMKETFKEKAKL

Compound | Tm shift (at 10 µM, NADP 200 µM) [Celsius] | Tm shift (at 100 µM, NADP+ 200 µM) [Celsius] | other results
O=C1C2(Cl)C3(Cl)C4(Cl)C(Cl)(Cl)C5(Cl)C3(Cl)C1(Cl)C5(Cl)C24Cl (stereo not drawn) |  | 3.1 | 
C=CC1=C(C)/C(=C/c2[nH]c(Cc3[nH]c(/C=C4\NC(=O)C(C)=C4C=C)c(C)c3CCC(=O)O)c(CCC(=O)O)c2C)NC1=O |  | 10 | 
O=C1Nc2ccccc2C1=O |  | 6.4 | 
NC(=O)c1ccc[n+](C2OC(COP(=O)(O)OP(=O)(O)OCC3OC(n4cnc5c(N)ncnc54)C(O)C3O)C(O)C2O)c1 (stereo not drawn) | 2.2 |  | 
O=c1oc2cc(O)ccc2c2oc3cc(O)ccc3c12 | 2.2 |  | 
C[C@@]12CCC3=C(CCc4cc(O)ccc43)[C@]13C[C@@H]3CC2=C(F)F |  | 23.8 | 
O=C(C1CCC(CNS(=O)(=O)c2ccc(Br)s2)CC1)N1CCN(C(c2ccccc2)c2ccc(Cl)cc2)CC1 (stereo not drawn) | 2.3 |  | 
O=C(O[C@@H]1Cc2c(O)cc(O)cc2O[C@H]1c1ccc(O)c(O)c1)c1cc(O)c(O)c(O)c1 |  |  | Tm shift (at 10 µM, NADP+ 200 µM): 12.6 Celsius

Second part, led by results:

Tm shift (at 10 µM, NADP 200 µM) [Celsius] | Tm shift (at 100 µM, NADP+ 200 µM) [Celsius] | Compound | other results
2.4 |  | CCc1nnc(NS(=O)(=O)c2ccc(NC(=O)/C=C/c3ccc(F)cc3)cc2)s1 | 
2.1 |  | O=C(C1CCN(S(=O)(=O)c2ccc(Br)s2)CC1)N1CCN(C(c2ccccc2)c2ccc(Cl)cc2)CC1 (stereo not drawn) | 
 | 3.7 | C[C@@]12CCC3=C(CCc4cc(O)ccc43)[C@H]1CCC2=C(F)F | 
 | 4.1 | CCCCCCCCCC(=O)SCCNC(=O)CCNC(=O)C(O)C(C)(C)COP(=O)(O)OP(=O)(O)OCC1OC(n2cnc3c(N)ncnc32)C(O)C1OP(=O)(O)O (stereo not drawn) | 
2.2 |  | NC(=O)c1ccc[n+](C2OC(COP(=O)(O)OP(=O)(O)OCC3OC(n4cnc5c(N)ncnc54)C(OP(=O)(O)O)C3O)C(O)C2O)c1 (stereo not drawn) | 
